Test results taken from the supplement of paper PMC8149375.

What was measured:
Details in all cases: treatment: drug alone; 5 days
[1] = tested on: 769-P; assay: GI50, drug alone; higher = less potent
Procedure: (§1)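 Primary HTS: 8 RCC cell lines treated with 8 doses (up to 10 uM) of each library drug alone for 5 days; viability read by CellTiter-Glo and normalised to DMSO. GI50 was fitted with XLfit (4-parameter), AUC is the area under the dose-response curve, and minimum viability is the lowest fraction of DMSO viability across doses.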

[2] = tested on: 786-O; assay: GI50, drug alone; higher = less potent
Procedure: as §1

[3] = tested on: A498; assay: GI50, drug alone; higher = less potent
Procedure: as §1

[4] = tested on: ACHN; assay: GI50, drug alone; higher = less potent
Procedure: as §1

[5] = tested on: CAKI-1; assay: GI50, drug alone; higher = less potent
Procedure: as §1

[6] = tested on: SN12C; assay: GI50, drug alone; higher = less potent
Procedure: as §1

[7] = tested on: TK-10; assay: GI50, drug alone; higher = less potent
Procedure: as §1

[8] = tested on: UO-31; assay: GI50, drug alone; higher = less potent
Procedure: as §1

[9] = tested on: 769-P; assay: minimum viability across doses, drug alone, relative to DMSO (fraction); higher = less growth inhibition
Procedure: as §1

[10] = tested on: 786-O; assay: as above
Procedure: as §1

[11] = tested on: A498; assay: as above
Procedure: as §1

[12] = tested on: ACHN; assay: as above
Procedure: as §1

[13] = tested on: CAKI-1; assay: as above
Procedure: as §1

[14] = tested on: SN12C; assay: as above
Procedure: as §1

[15] = tested on: TK-10; assay: as above
Procedure: as §1

[16] = tested on: UO-31; assay: as above
Procedure: as §1

[17] = tested on: 769-P; assay: AUC of dose-response viability curve, drug alone (arbitrary (AUC of normalised viability)); higher = less growth inhibition
Procedure: as §1

[18] = tested on: 786-O; assay: as above
Procedure: as §1

[19] = tested on: A498; assay: as above
Procedure: as §1

[20] = tested on: ACHN; assay: as above
Procedure: as §1

[21] = tested on: CAKI-1; assay: as above
Procedure: as §1

[22] = tested on: SN12C; assay: as above
Procedure: as §1

[23] = tested on: TK-10; assay: as above
Procedure: as §1

[24] = tested on: UO-31; assay: as above
Procedure: as §1

Structure (SMILES) | GI50, drug alone [2] [µM] | GI50, drug alone [4] [µM] | GI50, drug alone [1] [µM] | GI50, drug alone [3] [µM] | GI50, drug alone [5] [µM] | GI50, drug alone [6] [µM] | GI50, drug alone [7] [µM] | GI50, drug alone [8] [µM] | minimum viability across doses [9] | minimum viability across doses [10] | minimum viability across doses [11] | minimum viability across doses [12] | minimum viability across doses [13] | minimum viability across doses [14] | minimum viability across doses [15] | minimum viability across doses [16] | AUC of dose-response viability curve [17] | AUC of dose-response viability curve [18] | AUC of dose-response viability curve [19] | AUC of dose-response viability curve [20] | AUC of dose-response viability curve [21] | AUC of dose-response viability curve [22] | AUC of dose-response viability curve [23] | AUC of dose-response viability curve [24]
N#C/C(=C\c1ccc(O)c(O)c1)C(=O)NCc1ccccc1 [AG-490] | 5.99 | 7.43 | > 10 | > 10 | > 10 | > 10 | > 10 | > 10 | 0.823 | 0.369 | 1.04 | 0.301 | 0.948 | 0.788 | 0.615 | 0.843 | 3.27 | 2.89 | 3.87 | 3.09 | 3.57 | 3.37 | 3.21 | 4.19
COc1cc(Nc2ncc(F)c(Nc3ccc4c(n3)NC(=O)C(C)(C)O4)n2)cc(OC)c1OC [R406(free base)] | 1.59 | 1.42 | 9.62 | > 10 | 1.26 | 3.89 | 4.07 | 8.51 | 0.474 | 0.128 | 1 | 0.306 | 0.142 | 0.359 | 0.396 | 0.0454 | 3.13 | 2.21 | 4.42 | 2.35 | 2.61 | 2.79 | 2.44 | 4.5
C[C@@H](Oc1cc(-n2cnc3ccc(CN4CCN(C)CC4)cc32)sc1C(N)=O)c1ccccc1C(F)(F)F | 0.0194 | 0.0891 | 0.0697 | > 10 | 0.153 | 0.12 | 1.34 | 0.0449 | 0.0562 | 0.00395 | 0.599 | 0.172 | 0.17 | 0.234 | 0.235 | 0.00269 | 1.49 | 0.807 | 2.98 | 1.75 | 1.77 | 1.92 | 2.36 | 1.4
CN1C(=O)C(Cc2c[nH]c3ccccc23)NC1=S (stereo not given) [Necrostatin-1] | 0.0283 | > 10 | > 10 | > 10 | > 10 | > 10 | > 10 | > 10 | 0.968 | 0.334 | 0.888 | 0.79 | 0.916 | 0.868 | 0.729 | 1.01 | 3.6 | 2.03 | 4.28 | 2.99 | 3.5 | 3.29 | 2.91 | 4.83
O=c1c(O)c(-c2ccc(O)c(O)c2)oc2cc(O)cc(O)c12 [Quercetin (Sophoretin)] | > 10 | > 10 | > 10 | > 10 | > 10 | > 10 | > 10 | > 10 | 0.784 | 0.53 | 0.923 | 0.899 | 0.861 | 0.821 | 0.736 | 0.807 | 3.3 | 2.36 | 3.6 | 3.48 | 3.2 | 3.13 | 3.01 | 3.57
OCCn1cc(-c2ccc3c(c2)CC/C3=N\O)c(-c2ccncc2)n1 [GDC-0879] | > 10 | > 10 | > 10 | > 10 | > 10 | > 10 | > 10 | > 10 | 0.92 | 0.716 | 1.05 | 0.745 | 0.98 | 0.999 | 0.937 | 1.18 | 3.52 | 2.97 | 4.12 | 3.54 | 4.13 | 3.81 | 3.5 | 5.03
O=C(Nc1cc(C(F)(F)F)cc(C(F)(F)F)c1)c1cc(Cl)ccc1O [IMD 0354] | 0.412 | 0.943 | 1.29 | 1.59 | 1.08 | 1.35 | 1.22 | 2.96 | 0.0108 | 0.00771 | 0.0128 | 0.00484 | 0.036 | 0.00716 | 0.0653 | 0.019 | 2.71 | 2.03 | 3.46 | 2.4 | 2.8 | 2.67 | 2.4 | 4.73

Further lines, with some results ahead:

GI50, drug alone [2] [µM] | GI50, drug alone [4] [µM] | Structure (SMILES) | GI50, drug alone [1] [µM] | GI50, drug alone [3] [µM] | GI50, drug alone [5] [µM] | GI50, drug alone [6] [µM] | GI50, drug alone [7] [µM] | GI50, drug alone [8] [µM] | minimum viability across doses [9] | minimum viability across doses [10] | minimum viability across doses [11] | minimum viability across doses [12] | minimum viability across doses [13] | minimum viability across doses [14] | minimum viability across doses [15] | minimum viability across doses [16] | AUC of dose-response viability curve [17] | AUC of dose-response viability curve [18] | AUC of dose-response viability curve [19] | AUC of dose-response viability curve [20] | AUC of dose-response viability curve [21] | AUC of dose-response viability curve [22] | AUC of dose-response viability curve [23] | AUC of dose-response viability curve [24]
> 10 | > 10 | NC(=O)c1ccc(-c2nc(-c3ccc4c(c3)OCO4)c(-c3ccccn3)[nH]2)cc1 | > 10 | > 10 | > 10 | > 10 | > 10 | > 10 | 0.838 | 0.578 | 0.906 | 0.564 | 0.723 | 0.556 | 0.613 | 0.941 | 3.26 | 2.72 | 3.96 | 3.21 | 3.3 | 2.86 | 2.89 | 4.85
> 10 | > 10 | N#Cc1c(O)c2c(-c3ccc(-c4ccccc4O)cc3)csc2[nH]c1=O | > 10 | > 10 | > 10 | > 10 | > 10 | > 10 | 0.963 | 0.823 | 0.9 | 0.904 | 0.977 | 0.868 | 0.929 | 0.948 | 3.7 | 3.47 | 3.53 | 3.45 | 3.65 | 3.39 | 3.6 | 4.14
> 10 | > 10 | Cc1cccc(-c2nc(C(C)(C)C)[nH]c2-c2ccc3nccnc3c2)n1 | > 10 | 9.45 | > 10 | 5.55 | > 10 | > 10 | 0.795 | 0.589 | 0.302 | 0.87 | 0.603 | 0.21 | 0.676 | 0.569 | 3.25 | 2.63 | 3.88 | 3.38 | 3.35 | 3.02 | 2.9 | 5.79
